Values quoted from earlier work in PMC7395068, “The evolution of strategies to minimise the risk of human drug-induced liver injury (DILI) in drug discovery and development” (Archives of Toxicology, 2020).
Read-outs that look alike come from different tables or passages of the source.

Tests used:
HepG2 cells [1] = details: cited from earlier work
[2] = cited from earlier work
[3] = tested on: HepG2 cells, primary human hepatocytes; details: In vitro Assay; ref Garside 2014; cited from earlier work
[4] = tested on: THLE-Null and THLE-3A4 cells; details: In vitro Assay; ref Gustafsson 2014; cited from earlier work
[5] = tested on: THLE or HepG2 cells, isolated mitochondria, BSEP; details: In vitro Assay; ref Aleo 2019; cited from earlier work
PHH spheroids = details: In vitro Assay; ref Vorrink 2018; cited from earlier work
[6] = ref Chen 2011; cited from earlier work
[7] = ref Chen 2016; cited from earlier work
[8] = tested on: HepG2 C3A spheroid, BSEP, Glu/Gal in HepG2 cells, bioactivation; details: In vitro Assay; ref Williams 2019; cited from earlier work
hLiMTs = details: In vitro Assay; ref Proctor 2017; cited from earlier work
PHH = details: In vitro Assay; ref Proctor 2017; cited from earlier work
HepG2 cells [9] = details: In vitro Assay; ref O'Brien 2006; cited from earlier work
HepG2 cells [10] = details: In vitro Assay; ref Persson 2013; cited from earlier work
rBsep = details: In vitro Assay; ref Dawson 2012; cited from earlier work
human hepatocytes = details: In vitro Assay; ref Xu 2008; cited from earlier work
[11] = tested on: isolated mouse liver mitochondria; details: In vitro Assay; ref Porceddu 2012; cited from earlier work
[12] = tested on: primary human hepatocytes, NIH3T3 fibroblasts, BSEP, CYP3A4; details: In vitro Assay; ref Schadt 2015; cited from earlier work

Compound	Cluster 1-6 +VE Assay [3]	THLE-Null [4]	THLE-Null/3A4 [4]	In vivo DILI ([2]; […])	In vivo DILI ([2]; ref Garside 2014)	In vivo DILI ([2]; ref Gustafsson 2014)	DILI Score (FDA) (1-8) [6]	DILI +VE (5-8), DILI -VE (-4) [7]	DILI severity category [7]	Bayesian Machine Learning [8]	hLiMTs ATP <100uM (hLiMTs)	PHH ATP <100uM (PHH)	In vivo DILI ([2]; ref Proctor 2017)	In vivo DILI ([2]; ref Williams 2019)	In vivo DILI ([2]; ref Xu 2008)	Structural based (HCI) (HepG2 cells [9])	Cluser analysis (HepG2 cells [10])	Structural based (HCI) (HepG2 cells [10])	Inhibition of rBsep cutoff<1& cmax u>.2 (rBsep)	In vivo DILI ([2]; ref O'Brien 2006)	other results
C[C@@H]1C[C@@H]([C@H](O)CC2CC(=O)NC(=O)C2)C(=O)[C@@H](C)C1 [cycloheximide]																					Structural based (HCI) (HepG2 cells [1]): +VE; In vivo DILI ([2]; in vivo): +VE
CN(C)/N=N/c1[nH]cnc1C(N)=O [dacarbazine]	-VE	-VE	-VE	+VE	+VE	+VE	6	+VE	vMost-DILI-Concern												Partition Hybrid HRM Score [5]: -VE; Ro2 Hybrid HRM Score [5]: +VE; hLiMTs ATP <20 x Cmax (PHH spheroids): +VE (IC20 < 20 × Cmax.tot cut-off); In vivo DILI ([2]; ref Aleo 2019): +VE; In vivo DILI ([2]; ref Vorrink 2018): +VE
CNCCCN1c2ccccc2CCc2ccccc21 [desipramine]							3	-VE	Ambiguous DILI-concern	+VE	+VE (IC50 threshold of 100 µM)	+VE (IC50 threshold of 100 µM)	+VE	+VE	-VE						Ro2 Hybrid HRM Score [5]: +VE; In vivo DILI ([2]; ref Schadt 2015): -VE
NC(=O)OCC(COC(N)=O)c1ccccc1 [felbamate]	-VE	-VE	-VE	+VE	+VE	+VE	7	+VE	vMost-DILI-Concern	+VE	-VE	-VE	+VE	+VE	+VE	+VE	-VE	-VE	-VE	+VE	Inhibition of rBsep cutoff<3 (rBsep): -VE; Structural based (HCI) (human hepatocytes): -VE; In vivo DILI ([2]; ref Dawson 2012): +VE; In vivo DILI ([2]; ref Persson 2013): +VE
C[C@](N)(Cc1ccc(O)c(O)c1)C(=O)O [methyldopa]	-VE	-VE	-VE	+VE	+VE	+VE	8	+VE	vMost-DILI-Concern							-VE	-VE	+VE	-VE	+VE	Inhibition of rBsep cutoff<3 (rBsep): -VE; in vitro data EC2<=1x Cmax [11]: +VE; in vitro data EC20<=2uM [11]: -VE; In vivo DILI ([2]; ref Dawson 2012): +VE; In vivo DILI ([2]; ref Persson 2013): +VE; In vivo DILI ([2]; ref Porceddu 2012): -VE
Fc1ccc([C@@H]2CCNC[C@H]2COc2ccc3c(c2)OCO3)cc1 [paroxetine]				-VE			8	+VE	vLess-DILI-Concern	+VE	+VE (IC50 threshold of 100 µM)	+VE (IC50 threshold of 100 µM)	+VE	+VE	-VE	-VE				+VE	Partition Hybrid HRM Score [5]: +VE; Ro2 Hybrid HRM Score [5]: -VE; Structural based (HCI) (human hepatocytes): -VE; hLiMTs ATP <20 x Cmax (PHH spheroids): -VE; In vivo DILI ([2]; ref Aleo 2019): +VE; In vivo DILI ([2]; ref Vorrink 2018): -VE
CCCC(CCC)C(=O)O [sodium valproate]																					Structural based (HCI), In vitro Assay (HepG2 cells [1]; HepG2 HCI, ref Tolosa 2012): +VE
CC1=C(CC(=O)O)c2cc(F)ccc2/C1=C\c1ccc([S+](C)[O-])cc1 (centres unmarked) [sulindac]	-VE	-VE		+VE	+VE	+VE	8	+VE	vMost-DILI-Concern						+VE	+VE	-VE	-VE	+VE	+VE	Inhibition of rBsep cutoff<3 (rBsep): +VE; in vitro data EC2<=1x Cmax [11]: +VE; in vitro data EC20<=2uM [11]: +VE; Structural based (HCI) (human hepatocytes): +VE; Cellular toxicity (3T3 cells) [12]: -VE; Combined Assay [12]: +VE; GSH adduct HML [12]: +VE; Hepatocyte cellular toxicity [12]: -VE; MitoTox 3T3 [12]: -VE; TDI CYP3A4 [12]: -VE; hBSEP inhibition [12]: -VE; In vivo DILI ([2]; ref Aleo 2019): +VE; In vivo DILI ([2]; ref Dawson 2012): +VE; In vivo DILI ([2]; ref Persson 2013): +VE; In vivo DILI ([2]; ref Porceddu 2012): +VE; In vivo DILI ([2]; ref Schadt 2015): +VE
CC(c1cc2ccccc2s1)N(O)C(N)=O (centres unmarked) [zileuton]	-VE	-VE	-VE	+VE	+VE	+VE	5	+VE	vMost-DILI-Concern	+VE	-VE	-VE	+VE	+VE	+VE	+VE	-VE	+VE	-VE	+VE	Inhibition of rBsep cutoff<3 (rBsep): -VE; Structural based (HCI) (human hepatocytes): +VE; hLiMTs ATP <20 x Cmax (PHH spheroids): -VE; In vivo DILI ([2]; ref Dawson 2012): +VE; In vivo DILI ([2]; ref Persson 2013): +VE; In vivo DILI ([2]; ref Vorrink 2018): +VE
